Read-outs that look alike come from different tables or passages of the source. Starred links: 1 amine or outer side, 2 acyl side, 3 side chain; linkers in the order of their positions; H or OH if unused. Positions of bridges follow the written chain, without caps; N, C: chain ends. Residues, ends and D or L forms follow the SMILES beside them. Chains are numbered I, II in the order given. X2 = C[C@@H](CNC(=O)N[C@@H](C)CNC(=O)N[C@@H](C)CNC(=O)N[C@@H](C)CNC(=O)[*:2])NC(=O)NC[C@H](CCC(=O)O)NC(=O)NC[C@H](Cc1ccc(O)cc1)N[*:1]; X1 = C[C@@H](CNC(=O)N[C@@H](C)CNC(=O)[*:2])NC(=O)NC[C@H](C)N[*:1]
Assays:
[1] = NEP 24.11 degradation assay; settings: NEP 24.11 (isolated enzyme), pH 8, % remaining analogue, NEP 24.11 20 μg mL−1, […], pH 8.0, 20 °C, HPLC; time 6 h; replicate 1
Method: Stock solutions of the oligomers were prepared at a concentration of 400 µM in a solution of 50 mM HEPES buffer, 50 mM NaCl, 0.05% Tween-80, pH 8.0. Stock solution of NEP 24.11 was prepared at a concentration of 100 µg mL^−1 in water. Stability of oligomers to NEP 24.11 was assessed by conducting protease reaction in a 96-well plates at 20 °C. […] Each compound was also incubated in the absence of the enzyme (12 µL of HEPES buffer and 38 µL of oligomer). […] A portion of the quenched reaction solution was analysed by HPLC. The time course of peptide degradation was determined by integrating the area of each peak in a series of HPLC traces.

in vitro = settings: mouse, plasma; for remaining at 20 min, 5 µM / remaining at 1 h, 5 µM: pH 7.4, % remaining analogue
Method: The oligomer was then diluted 1/50 with a solution of plasma/PBS pH 7.4 (1:1) to afford a final concentration of 5 µM and incubated at 37 °C (4 µL of the stock solution was diluted with 196 µL of plasma/PBS, pH 7.4, 1:1). Each compound was also incubated in the absence of plasma (196 µL of H2O/PBS, pH 7.4, 1:1). At the indicated time (20 min and 60 min) an aliquot of 70 µL was removed from each experimental reaction and pipetting into 175 µL of acetonitrile at 0 °C to quench the reaction (t = 0 min was determined using the reaction without plasma). The samples were frozen at –80 °C before analysis. The frozen samples were defrosted, stirred with a vortex 5 min and finally centrifuged 5 min at 16 °C (1500 × g). The supernatant was analysed by LC-MS. The time course of oligomer degradation was determined by integrating the area of the peak in the extracted ion chromatogram.
Supplementar y Figur e 2 : Mouse plasma degradation assay. […] Data are
mean ± SEM, n = 4. Source data are provided as a Source Data file (T able 2 tab).
Supplementar y Figur e 3.
Data are mean ± SEM, n = 3.
Source data are provided as a Source Data file […]

normal mice (C57BL/6J) = assay: Blood glucose study in normal fed mice; type: in vivo, mouse; design: key to In vivo activity (indicator): + active; +++: + + + more active; settings: for effect on blood glucose concentration / time after dosing for which the blood glucose decrease is preserved: normal fed C57BL/6J mice, n = 3, 5 μg per mouse (50 nmol kg−1) i.v.; for effect on blood glucose concentration: monitored 6 h; for In vivo activity (indicator): mice, 50 nmol kg−1 i.v.
Method: In the first study, we evaluated the effect of the analogues on the blood glucose concentration of normal mice (Fig. 3). The fed mice were treated with the analogues and their blood glucose concentration was monitored before and after dosing for 6 h. […] Indeed, a decrease of blood glucose concentration is observed after 30 min and the effect is preserved for 4 h after dosing.
Fig. 3 Blood glucose study in mice. a–c Blood glucose concentration in normal mice (C57BL/6J, male, 20–25 g, n = 3) before and after dosing: 5 μg per mouse (50 nmol kg^−1) i.v. Formulation: 20 μg mL^−1 in PBS 1×. The dosing was done at T0. Data are mean ± SEM. […] Source data are provided as a Source Data file
After the acclimation period (at least 5 days), mice (male C57BL/6J mice (Charles River laboratories) 8 weeks old, 20–25 g) were randomized into 10 groups (n = 3 per group) according to their body weight. They were acutely treated via i.v. route at 10 am (5 µg per mouse). Blood glucose was measured before dosing and at 30 min, 1, 2, 4, 6 h after dosing in fed conditions.

mouse GLP-1 receptor [2] = biological target: T1, mouse GLP-1 receptor (Mus musculus, UniProt O35659); settings: for Potency (%), percentage of potency compare to GLP-1-G^2: cAMP production, from EC50
T1 sequence (O35659 22-463): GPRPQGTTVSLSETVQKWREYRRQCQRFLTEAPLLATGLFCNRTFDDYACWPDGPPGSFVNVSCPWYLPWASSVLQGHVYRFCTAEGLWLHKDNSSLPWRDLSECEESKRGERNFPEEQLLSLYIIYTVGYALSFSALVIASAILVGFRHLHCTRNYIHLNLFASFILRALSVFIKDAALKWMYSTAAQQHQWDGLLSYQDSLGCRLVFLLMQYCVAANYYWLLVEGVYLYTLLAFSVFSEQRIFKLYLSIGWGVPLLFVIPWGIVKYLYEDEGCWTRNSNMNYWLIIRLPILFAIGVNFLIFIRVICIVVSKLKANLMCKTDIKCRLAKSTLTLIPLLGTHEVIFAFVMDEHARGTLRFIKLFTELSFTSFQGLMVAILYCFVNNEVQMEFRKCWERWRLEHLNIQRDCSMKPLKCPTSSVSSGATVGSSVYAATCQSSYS

mouse GLP-1 receptor [3] = biological target: T1, mouse GLP-1 receptor; assay: cell-based
[4] = tested on: fasted normal mice (C57BL/6J); assay: Intraperitoneal glucose tolerance test (IPGTT) in fasted normal mice; type: in vivo, mouse; settings: for AUC: IPGTT 5 min (Fig 4a), blood glucose AUC 0-120 min
Method: In a second study, an IPGTT was performed 30 min after i.v. injections of 1, 14 and the vehicle (Fig. 4b). […] A further IPGTT study was done with a glucose challenge after 2 h of the dosing to investigate the prolonged activity of hybrids 14, 22 and 23 (Fig. 4c).
Fig. 4 IPGTT studies in mice. a–d Intraperitoneal glucose tolerance test (IPGTT) at different time after dosing in fasted normal mice (C57BL/6J, male, 20–25 g). Dosage: 200 μg kg^−1 (50 nmol kg^−1) i.v. Formulation: 20 μg mL^−1 in PBS 1×. IPGTT: glucose 2 g kg^−1 i.p. at T0. a IPGTT after 5 min (n = 4). b IPGTT after 30 min (n = 6). c IPGTT after 2 h (n = 6). d IPGTT after 4 h (n = 3). Area under the curve (AUC) of the corresponding IPGTT curve. Data are mean ± SEM. […] Source data are provided as a Source Data file
After the acclimation period (at least 5 days), mice (male C57BL/6J mice (Charles River laboratories) 6 weeks old, 20–25 g) were randomized into groups according to their body weight. The mice were fasted for 6 h prior being acutely treated via i.v. route (5 µg per mouse i.v. (200 μg kg^−1, 50 nmol kg^−1)) formulated at 20 µg mL^−1 in PBS 1×. The IPGTTs were performed (glucose 2 g kg^−1 i.p.) 5 min, 30 min, 2 h or 4 h after dosing and blood glucose was measured at different time points after the glucose challenge.

[5] = read-out: Top (best-fit value), variable slope four-parameter fit, unconstrained, 14: experiment 1
[6] = fasted C57BL/6J mice, 200 μg kg−1 (50 nmol kg−1) i.v., glucose 2 g kg−1 i.p., n = 6

## CC[C@H](C)[C@H](NC(=O)[C@H](Cc1ccccc1)NC(=O)[C@H](CCC(=O)O)NC(=O)[C@H](CCCCN)NC(=O)[C@H](C)NC(=O)[C@H](C)NC(=O)[C@H](CCC(N)=O)NC(=O)CNC(=O)[C@H](CCC(=O)O)NC(=O)[C@H](CC(C)C)NC(=O)[C@H](Cc1ccc(O)cc1)NC(=O)NC[C@H](C)NC(=O)NC[C@H](C)NC(=O)N[C@@H](CNC(=O)[C@H](CO)NC(=O)[C@@H](NC(=O)[C@H](Cc1ccccc1)NC(=O)[C@@H](NC(=O)CNC(=O)[C@H](CCC(=O)O)NC(=O)CNC(=O)[C@@H](N)Cc1c[nH]cn1)[C@@H](C)O)[C@@H](C)O)CC(=O)O)C(=O)N[C@@H](C)C(=O)N[C@@H](Cc1c[nH]c2ccccc12)C(=O)N[C@@H](CC(C)C)C(=O)N[C@H](C(=O)N[C@@H](CCCCN)C(=O)NCC(=O)N[C@@H](CCCNC(=N)N)C(=O)NCC(N)=O)C(C)C [compound 2, GG2[D^uαA^uA^u]^9-12]
[1]
  remaining at 6 h, […]: 39.2%
In vitro; pH 7.4
  half-life: 17 min
In vitro
  remaining at 20 min, 5 µM: 38%
  remaining at 1 h, 5 µM: 21.2%
Normal mice (C57BL/6J)
  effect on blood glucose concentration: showed no activity
Mouse GLP-1 receptor [2]
  LogEC50 (best-fit value): -7.897
  Potency (%), percentage of potency compare to GLP-1-G^2: 2%
Mouse GLP-1 receptor [3]
  EC50: 13 nM
Mouse GLP-1 receptor [3]; [5]
  Emax: 77.7%

## CC[C@H](C)[C@H](NC(=O)[C@H](Cc1ccccc1)NC(=O)NC[C@H](C)NC(=O)NC[C@H](C)NC(=O)NC[C@H](C)NC(=O)[C@H](CCC(N)=O)NC(=O)CNC(=O)[C@H](CCC(=O)O)NC(=O)[C@H](CC(C)C)NC(=O)[C@H](Cc1ccc(O)cc1)NC(=O)[C@H](CO)NC(=O)[C@H](CO)NC(=O)[C@@H](NC(=O)[C@H](CC(=O)O)NC(=O)[C@H](CO)NC(=O)[C@@H](NC(=O)[C@H](Cc1ccccc1)NC(=O)[C@@H](NC(=O)CNC(=O)[C@H](CCC(=O)O)NC(=O)CNC(=O)[C@@H](N)Cc1c[nH]cn1)[C@@H](C)O)[C@@H](C)O)C(C)C)C(=O)N[C@@H](C)C(=O)N[C@@H](Cc1c[nH]c2ccccc12)C(=O)N[C@@H](CC(C)C)C(=O)N[C@H](C(=O)N[C@@H](CCCCN)C(=O)NCC(=O)N[C@@H](CCCNC(=N)N)C(=O)NCC(N)=O)C(C)C [compound 14, GG2[A^uA^uA^u]^18-21] (I: H-HGEGTFTSDVSSYLEGQ / II: FIAWLVKGRG-NH2; linker I:C-II:N via X1)
In vitro; pH 7.4
  half-life: 38 min
In vitro
  remaining at 20 min, 5 µM: 66.9%
  remaining at 1 h, 5 µM: 30.5%
Normal mice (C57BL/6J)
  In vivo activity (indicator): +++
  time after dosing for which the blood glucose decrease is preserved: 4 h
  effect on blood glucose concentration: showed an improved efficacy compare to the native peptide 1
[4]; mean of n = 4, 2018-03-08
  AUC: 16833 mg·min/dL
[4]; single animal, 1st of group
  AUC: 18150 mg·min/dL
[4]; single animal, 2nd of group
  AUC: 13233 mg·min/dL
[4]; single animal, 3rd of group
  AUC: 18503 mg·min/dL
[4]; single animal, 4th of group
  AUC: 17445 mg·min/dL
[4]; fasted C57BL/6J mice, 200 μg kg−1 (50 nmol kg−1) i.v., glucose 2 g kg−1 i.p., n = 3
  activity in IPGTT 4 h after dosing: still active after 6 h of the treatment
[4]; fasted C57BL/6J mice, 200 μg kg−1 (50 nmol kg−1) i.v., glucose 2 g kg−1 i.p., n = 4
  activity in IPGTT 5 min after dosing: both analogues were active
[4]; [6]
  activity in IPGTT 30 min after dosing: demonstrated full activity
  activity in IPGTT 2 h after dosing: good control of the blood glucose concentration during the IPGTT
Mouse GLP-1 receptor [2]
  Potency (%), percentage of potency compare to GLP-1-G^2: 6%
Mouse GLP-1 receptor [3]
  EC50: 4.1 nM
Mouse GLP-1 receptor [3]; read-out: Top (best-fit value), fit with BOTTOM = 0%, 14: experiment 1
  Emax: 116%
Mouse GLP-1 receptor [3]; read-out: Top (best-fit value), fit with BOTTOM = 0%, 14 experiment 2
  Emax: 117%
Mouse GLP-1 receptor [3]; read-out: Top (best-fit value), fit with BOTTOM = 0%, 14 experiment 3
  Emax: 100%
Mouse GLP-1 receptor [3]; read-out: Top (best-fit value), fit with BOTTOM = 0%, 14 experiment 4
  Emax: 116%
Mouse GLP-1 receptor [3]; [5]
  Emax: 103%
Mouse GLP-1 receptor [3]; read-out: Top (best-fit value), variable slope four-parameter fit, unconstrained, 14 experiment 2
  Emax: 116%
Mouse GLP-1 receptor [3]; read-out: Top (best-fit value), variable slope four-parameter fit, unconstrained, 14 experiment 3
  Emax: 99.8%
Mouse GLP-1 receptor [3]; read-out: Top (best-fit value), variable slope four-parameter fit, unconstrained, 14 experiment 4
  Emax: 119%

## CC[C@H](C)[C@H](NC(=O)[C@H](Cc1ccccc1)NC(=O)NC[C@H](C)NC(=O)NC[C@H](C)NC(=O)NC[C@H](C)NC(=O)NC[C@H](C)NC(=O)NC[C@H](CCC(=O)O)NC(=O)NC[C@H](Cc1ccc(O)cc1)NC(=O)[C@H](Cc1ccc(O)cc1)NC(=O)[C@H](CO)NC(=O)[C@H](CO)NC(=O)[C@@H](NC(=O)[C@H](CC(=O)O)NC(=O)[C@H](CO)NC(=O)[C@@H](NC(=O)[C@H](Cc1ccccc1)NC(=O)[C@@H](NC(=O)CNC(=O)[C@H](CCC(=O)O)NC(=O)CNC(=O)[C@@H](N)Cc1c[nH]cn1)[C@@H](C)O)[C@@H](C)O)C(C)C)C(=O)N[C@@H](C)C(=O)N[C@@H](Cc1c[nH]c2ccccc12)C(=O)N[C@@H](CC(C)C)C(=O)N[C@H](C(=O)N[C@@H](CCCCN)C(=O)NCC(=O)N[C@@H](CCCNC(=N)N)C(=O)NCC(N)=O)C(C)C [compound 23, GG2[Y^uE^uA^uA^uA^uA^u]^14-21] (I: H-HGEGTFTSDVSSY / II: FIAWLVKGRG-NH2; linker I:C-II:N via X2)
In vitro; pH 7.4
  half-life at 5 µM: 39 min
In vitro
  remaining at 1 h, 5 µM: 24.8%
Normal mice (C57BL/6J)
  In vivo activity (indicator): +++
  time after dosing for which the blood glucose decrease is preserved: 4 h
  effect on blood glucose concentration: showed an improved efficacy compare to the native peptide 1
[4]; [6]
  activity in IPGTT 2 h after dosing: good control of the blood glucose concentration during the IPGTT
Mouse GLP-1 receptor [2]
  LogEC50 (best-fit value): -8.466
  Potency (%), percentage of potency compare to GLP-1-G^2: 7%
Mouse GLP-1 receptor [3]
  EC50: 3.4 nM
Mouse GLP-1 receptor [3]; [5]
  Emax: 100%

Reference: PMC6389962 (Nature Communications, 2019)
